According to patent US4398029A, “Quinoline carboxylic acid derivatives and process for the preparation” (Kyorin Seiyaku Kabushiki Kaisha, priority 1981, dated 1983):
≈ marks a conversion by molar mass, not a printed value. Like-named read-outs stand apart in the source and are kept apart here.

Legend:
[1] = system: E. coli ATCC 10536; assay: Antibacterial activity (MIC), standard agar dilution streak method; format: cell-based, Escherichia coli; conditions: for MIC: Escherichia coli, ATCC10536, read-out: Minimum inhibitory concentration
Procedure: (§1) The antibacterial activities of the compounds of the present invention were assayed by the standard agar dilution streak method against Gram-positive and Gram-negative bacteria [Chemotherapy, 22, 1126 (1974)].

[2] = system: S. aureus Terajima; assay: as above; format: cell-based, Staphylococcus aureus; conditions: Staphylococcus aureus, read-out: Minimum inhibitory concentration
Procedure: as §1

[3] = system: Alcaligenes faecalis 0104002; assay: as above; format: cell-based; conditions: for MIC: read-out: Minimum inhibitory concentration
Procedure: as §1

[4] = system: Enterobacter cloacae IID 977; assay: as above; format: cell-based; conditions: read-out: Minimum inhibitory concentration
Procedure: as §1

[5] = system: Pseudomonas aeruginosa V-1; assay: as above; format: cell-based; conditions: read-out: Minimum inhibitory concentration
Procedure: as §1

[6] = system: Yersinia enterocolitica IID 981; assay: as above; format: cell-based; conditions: read-out: Minimum inhibitory concentration
Procedure: as §1

[7] = system: Bacillus subtilis PCI 219; assay: as above; format: cell-based; conditions: PCI219, read-out: Minimum inhibitory concentration
Procedure: as §1

[8] = system: P. mirabilis IID 994; assay: as above; format: cell-based; conditions: Proteus mirabilis, IID994, read-out: Minimum inhibitory concentration
Procedure: as §1

[9] = system: Klebsiella pneumoniae IFO 3512; assay: as above; format: cell-based; conditions: read-out: Minimum inhibitory concentration
Procedure: as §1

[10] = system: S. epidermidis IID 866; assay: as above; format: cell-based; conditions: Staphylococcus epidermidis, IID866, read-out: Minimum inhibitory concentration
Procedure: as §1

[11] = system: Salmonella enteritidis IID 604; assay: as above; format: cell-based; conditions: Salmonella enterica, read-out: Minimum inhibitory concentration
Procedure: as §1

[12] = system: P. morganii IID 602; assay: as above; format: cell-based; conditions: Morganella morganii, read-out: Minimum inhibitory concentration
Procedure: as §1

[13] = system: Serratia marcescens IID 618; assay: as above; format: cell-based; conditions: for MIC: read-out: Minimum inhibitory concentration
Procedure: as §1

[14] = system: Staphylococcus aureus 209 p; assay: as above; format: cell-based; conditions: for MIC: read-out: Minimum inhibitory concentration
Procedure: as §1

[15] = system: Citrobacter freundii IID 976; assay: as above; format: cell-based; conditions: read-out: Minimum inhibitory concentration
Procedure: as §1

[16] = system: Escherichia coli NIHJ JC-2; assay: as above; format: cell-based; conditions: for MIC: read-out: Minimum inhibitory concentration
Procedure: as §1

[17] = system: Acinetobacter anitratus IID 876; assay: as above; format: cell-based; conditions: Acinetobacter calcoaceticus, IID876, read-out: Minimum inhibitory concentration
Procedure: as §1

[18] = system: P. aeruginosa IFO 12689; assay: as above; format: cell-based, Pseudomonas aeruginosa; conditions: Pseudomonas aeruginosa, IFO12689, P. aeruginosa IFO 12689; read-out: Minimum inhibitory concentration
Procedure: as §1

[19] = system: Shigella sonnei IID 969; assay: microbe, parasite or virus in culture; format: cell-based; conditions: read-out: Minimum inhibitory concentration
Procedure: as §1

[20] = system: Proteus vulgaris 3167; assay: Antibacterial activity (MIC), standard agar dilution streak method; format: cell-based; conditions: read-out: Minimum inhibitory concentration
Procedure: as §1

[21] = IID977, Enterobacter cloacae IID 977
[22] = Pseudomonas aeruginosa, V1, Pseudomonas aeruginosa V-1
[23] = IID981, Yersinia enterocolitica IID 981
[24] = IFO3512, Klebsiella pneumoniae IFO 3512
[25] = IID618, Serratia marcescens IID 618
[26] = IID976, Citrobacter freundii IID 976
[27] = NIHJJC2, Escherichia coli NIHJ JC-2
[28] = Shigella sonnei, IID969, Shigella sonnei IID 969
[29] = Yersinia enterocolitica, IID981, Yersinia enterocolitica IID 981
[30] = Proteus vulgaris, 3167, Proteus vulgaris 3167
[31] = Klebsiella pneumoniae, IFO3512, Klebsiella pneumoniae IFO 3512
[32] = Citrobacter freundii, IID976, Citrobacter freundii IID 976

Compound	MIC [1]	MIC ([2]; S. aureus Terajima)	MIC ([3]; Alcaligenes faecalis 0104002)	MIC [4, 21]	MIC [5, 22]	MIC [6, 23]	MIC ([7]; Bacillus subtilis PCI 219)	MIC ([8]; P. mirabilis IID 994)	MIC [9, 24]	MIC [10]	MIC ([11]; Salmonella enteritidis IID 604)	MIC ([12]; IID602, P. morganii IID 602)	MIC [13, 25]	MIC ([14]; Staphylococcus aureus 209 p)	MIC [15, 26]	MIC [16, 27]	MIC [17]	MIC [18]	MIC [19, 28]	MIC [6, 29]	other results
Cl.Cn1cc(C(=O)O)c(=O)c2cc(F)c(N3CCNCC3)c(F)c21 [Example 1, 6,8-Difluoro-1,4-dihydro-1-methyl-4-oxo-7-(1-piperazinyl)quinoline-3-carboxylic acid hydrochloride]	0.1 mg/L	3.13 mg/L	6.25 mg/L	0.1 mg/L	3.13 mg/L	0.1 mg/L	0.39 mg/L	0.1 mg/L	≤ 0.05 mg/L	3.13 mg/L	0.1 mg/L	0.2 mg/L	0.1 mg/L	3.13 mg/L	≤ 0.05 mg/L	≤ 0.05 mg/L	1.56 mg/L	1.56 mg/L	≤ 0.05 mg/L	–	–
CCn1cc(C(=O)O)c(=O)c2cc(F)c(N3CCN(CCO)CC3)c(F)c21 [Example 8, 1-Ethyl-6,8-difluoro-1,4-dihydro-7-[4-(2-hydroxyethyl)-1-piperazinyl]-4-oxoquinoline-3-carboxylic acid]	0.2 mg/L (≈ 0.524 µM)	0.78 mg/L (≈ 2.05 µM)	–	–	–	–	0.1 mg/L (≈ 0.262 µM)	0.2 mg/L (≈ 0.524 µM)	–	0.78 mg/L (≈ 2.05 µM)	0.78 mg/L (≈ 2.05 µM)	0.78 mg/L (≈ 2.05 µM)	–	0.78 mg/L (≈ 2.05 µM)	–	–	1.56 mg/L (≈ 4.09 µM)	12.5 mg/L (≈ 32.8 µM)	0.1 mg/L (≈ 0.262 µM)	0.39 mg/L (≈ 1.02 µM)	MIC ([3]; Alcaligenes faecalis, 0104002, Alcaligenes faecalis 0104002): 1.56 mg/L (≈ 4.09 µM); MIC ([4]; Enterobacter cloacae, IID977, Enterobacter cloacae IID 977): 0.39 mg/L (≈ 1.02 µM); MIC ([5]; V1, Pseudomonas aeruginosa V-1): 12.5 mg/L (≈ 32.8 µM); MIC [20, 30]: 0.1 mg/L (≈ 0.262 µM); MIC [9, 31]: ≤ 0.05 mg/L; MIC ([13]; Serratia marcescens, IID618, Serratia marcescens IID 618): 0.78 mg/L (≈ 2.05 µM); MIC [15, 32]: 0.39 mg/L (≈ 1.02 µM); MIC ([16]; Escherichia coli, NIHJJC2, Escherichia coli NIHJ JC-2): ≤ 0.05 mg/L
CCn1cc(C(=O)O)c(=O)c2cc(F)c(N3CCC(O)CC3)c(F)c21 [Example 9, 1-Ethyl-6,8-difluoro-1,4-dihydro-7-(4-hydroxy-1-piperidinyl)-4-oxoquinoline-3-carboxylic acid]	–	0.2 mg/L (≈ 0.568 µM)	–	–	6.25 mg/L (≈ 17.7 µM)	–	≤ 0.05 mg/L	–	–	0.39 mg/L (≈ 1.11 µM)	1.56 mg/L (≈ 4.43 µM)	0.78 mg/L (≈ 2.21 µM)	–	–	–	–	1.56 mg/L (≈ 4.43 µM)	12.5 mg/L (≈ 35.5 µM)	0.2 mg/L (≈ 0.568 µM)	0.78 mg/L (≈ 2.21 µM)	Minimum inhibitory concentration [1]: 0.20 mg/L (≈ 0.568 µM); Minimum inhibitory concentration ([3]; Alcaligenes faecalis 0104002): 1.56 mg/L (≈ 4.43 µM); MIC [20, 30]: ≤ 0.05 mg/L; MIC [9, 31]: ≤ 0.05 mg/L; Minimum inhibitory concentration ([13]; Serratia marcescens IID 618): 1.56 mg/L (≈ 4.43 µM); Minimum inhibitory concentration ([14]; Staphylococcus aureus 209 p): 0.20 mg/L (≈ 0.568 µM); MIC [15, 32]: 0.78 mg/L (≈ 2.21 µM); Minimum inhibitory concentration ([16]; Escherichia coli NIHJ JC-2): 0.20 mg/L (≈ 0.568 µM)
CCN1CCN(c2c(F)cc3c(=O)c(C(=O)O)cn(CC)c3c2F)CC1 [Example 7, 1-Ethyl-7-(4-ethyl-1-piperazinyl)-6,8-difluoro-1,4-dihydro-4-oxoquinoline-3-carboxylic acid]	0.1 mg/L (≈ 0.274 µM)	–	1.56 mg/L (≈ 4.27 µM)	0.39 mg/L (≈ 1.07 µM)	–	0.2 mg/L (≈ 0.547 µM)	–	–	≤ 0.05 mg/L	0.78 mg/L (≈ 2.13 µM)	–	–	0.39 mg/L (≈ 1.07 µM)	–	0.2 mg/L (≈ 0.547 µM)	≤ 0.05 mg/L	0.39 mg/L (≈ 1.07 µM)	6.25 mg/L (≈ 17.1 µM)	–	–	MIC [2]: 0.78 mg/L (≈ 2.13 µM); MIC ([5]; Pseudomonas aeruginosa, V1): 6.25 mg/L (≈ 17.1 µM); MIC ([20]; Proteus vulgaris 3167): ≤ 0.05 mg/L; MIC ([7]; Bacillus subtilis): 0.1 mg/L (≈ 0.274 µM); MIC [8]: 0.2 mg/L (≈ 0.547 µM); MIC [11]: 0.39 mg/L (≈ 1.07 µM); MIC ([12]; IID602): 0.39 mg/L (≈ 1.07 µM); MIC ([14]; Staphylococcus aureus, 209P): 0.78 mg/L (≈ 2.13 µM); MIC ([19]; IID969, Shigella sonnei IID 969): 0.1 mg/L (≈ 0.274 µM)
